# Test results taken from US11826402B2, “Combination therapy involving antibodies against claudin 18.2 for treatment of metastatic pancreatic adenocarcinoma” (Astellas Pharma Inc., priority 2013, dated 2023).
# Entries after “also recorded” stand apart in the source; their conditions may differ.
# Assays:
# [1] = tested on: MiaPaCa-2-LVT xenografts; assay: Subcutaneous MiaPaCa-2-LVT xenograft treatment
# Procedure: MiaPaCa2-LVT xenograft tumors were inoculated by injection of 1 e7 MiaPaCa2-LVT cells subcutaneous into the flank of 15 female Hsd:Athymic Nude-Foxn1nu mice for each treatment group. […] Treatment was continued semi-weekly with alternating i.p. and i.v. injection until animals were sacrificed. […] The size of s.c. tumors was measured twice weekly (mean+SEM). […] Mice were sacrificed when tumor reached a volume of 1400 mm^3 or tumor became ulcerous.
# MiaPaCa2-LVT xenograft tumors were inoculated by injection of 5 e6 MiaPaCa2-LVT cells subcutaneous into the flank of 10 female Hsd:Athymic Nude-Foxn1nu mice for each treatment group. 4 days after tumor cell injection, treatment was initiated with chemotherapy (50 mg/kg gemcitabine i.p) and were continued weekly for six weeks. […] The size of tumors was measured twice weekly (mean+SEM). […] Mice were sacrificed when tumors reached a volume of 1400 mm^3 or tumors became ulcerous.
# (§4) Xenograft tumors were inoculated by subcutaneous injection of tumor cells in 200 μl PBS into the flanks of female Hsd:Athymic Nude-Foxn1^nu mice. Tumor bearing mice were treated with 0 μg, 200 μg, 400 μg or 800 μg antibody injected i.v. weekly or alternating i.v./i.p. semi-weekly. Chemotherapeutic agents were applied i.p. weekly or semi-weekly. Tumor sizes and animal health were monitored semi-weekly. At the end of chemotherapy treatment, antibody applications were continued until tumors reached a volume of >1400 mm^3 or until tumors became ulcerous. Tumor samples were cryo conserved or fixed in 4% formalin for subsequent analysis.
# [2] = tested on: BxPC3-LVT xenografts; assay: Subcutaneous BxPC3-LVT xenograft treatment
# Procedure: BxPC3-LVT xenograft tumors were inoculated by injection of 1 e7 BxPC3-LVT cells subcutaneous into the flank of 15 female Hsd:Athymic Nude-Foxn1nu mice for each treatment group. […] Treatment was continued semi-weekly with alternating i.p. and i.v. injection until animals were sacrificed. […] The size of s.c. tumors was measured twice weekly (mean+SEM, * p<0.05). […] Mice were sacrificed, when tumor reached a volume of 1400 mm^3 or tumor became ulcerous.
# BxPC3-LVT xenograft tumors were inoculated by injection of 8.5 e6 BxPC3-LVT cells subcutaneous into the flank of 10 female Hsd:Athymic Nude-Foxn1nu mice for each treatment group. On the third day after tumor cell injection, treatment was initiated with chemotherapy (50 mg/kg gemcitabine i.p., respectively 50 mg/kg gemcitabine plus 5 mg/kg oxaliplatin i.p.) and were continued weekly for six weeks. […] The size of s.c. tumors was measured twice weekly (mean+SEM). […] Mice were sacrificed when tumors reached a volume of 1400 mm3 or tumors became ulcerous.
# BxPC3-LVT xenograft tumors were inoculated by injection of 8.5 e6 BxPC3-LVT cells subcutaneous into the flanks of 10 female Hsd:Athymic Nude-Foxn1nu mice for each treatment group. On the third day after tumor cell injection, treatments were initiated with chemotherapy (100 mg/kg gemcitabine i.p., or 100 mg/kg gemcitabine plus 5 mg/kg oxaliplatin i.p.) and were continued weekly for six weeks. […] The size of s.c. tumors was measured twice weekly (mean+SEM). […] Mice were sacrificed when tumors reached a volume of 1400 mm^3 or tumors became ulcerous.
# as §4
# [3] = tested on: DANG; assay: IMAB362-mediated ADCC assay (luciferase, human PBMCs, E:T 40:1), also after chemotherapy pretreatment; format: cell-based
# Procedure: For ADCC assays pancreatic cancer cell lines were transiently transfected with luciferase RNA. […] RNA was stored in 22 μl aliquots at −80° C. […] In each assay cells were detached with PBS/5 mM EDTA and 2.5×10^6 cells dissolved in 250 μl X-Vivo were mixed in ice-cold cuvettes with 10 μg RNA. Cells were immediately electroporated (GenePulser Xcell, Biorad) and resuspended in pre-warmed Assay-medium adjusting the cells to 5×10^5 cells/ml.
# (§1) The viability of the cells was determined directly after electroporation using CASY or by staining cells with Trypan blue and determining the percentage of dead cells in the Neubauer chamber. Cells were seeded in quadruplicates in white 96-well plates (2.5×10^4 cells/well) and incubated for 24 h. Subsequently, luciferase activity was measured in a luminometer (Tecan Infinite200) after addition of luciferin mix for 90 min. Transfection was successful and consequently ADCC measurable, if RLU values >1.000 were obtained.
# (§2) Pancreatic cancer target cells were seeded two days in advance in flasks to obtain 80-90% confluent cultures on the day ADCC started. […] NUGC-4 sub 10cH11 subE10 Luci #2 cells (8000 cells/well) were seeded in addition as positive controls in all assays. Cells were cultivated for 4-6 h before addition of antibody and purified PBMCs. PBMCs were prepared from fresh human buffy coat obtained from healthy donors. About 3× 20-25 ml blood was diluted (1:2) with PBS and carefully layered on 4×15 ml Ficol-Paque Plus (GE Healthcare) in 50 ml Falcon tubes. Gradients were centrifuged (25 min, 700 g). After centrifugation, peripheral blood mononuclear cells (PBMC) were collected from the interphase, washed in PBS/2 mM EDTA, centrifuged (5 min, 468 g), again resuspended in PBS/2 mM EDTA and centrifuged (10 min, 208 g) to remove the platelets. The pellets were resuspended in 50 ml PBS/2 mM EDTA and cells were counted.
# (§3) Of each dilution 25 μl was added in quadruplicates to the target cells. PBS without antibodies was added in the medium and lysis control wells. Subsequently, 25 μl PBMCs were added to each well (E:T ratio=40:1) and plates were incubated for 24 h±1 h at 37° C., 5% CO2.
# The next day, 10 μl 8% Triton X100/PBS solution was added to the lysis control wells and 10 μl PBS in all other wells. […] Luminescence resulting from the oxidation of […] by the luciferase of viable cells was measured using a microplate-reader (Infinite200, Tecan, Switzerland). Percentage of cellular cytotoxicity was calculated using the following formula: Specific killing (%)=100−[(RLUsample−RLUtriton)/(RLUmedium ctrl−RLUtriton)×100]
# 12. Cultivation of Pancreas Cancer Cell Lines with Chemotherapeutic Drugs for ADCC or CDC For DANG 4 to 6 E+06 cells were seeded and cultivated for 2 days in medium or medium+1 ng/ml gemcitabine or 1 ng/ml gemcitabine+10 ng/ml oxaliplatin.
# On the day ADCC started, the protocol described above was followed and cell surface expression of CLDN18 was determined in FACS analysis as described above.
# PBMCs of different donors were added in each experiment.
# [4] = tested on: Panc05.04; assay: IMAB362-mediated ADCC assay (luciferase, human PBMCs, E:T 40:1); format: cell-based
# Procedure: For ADCC assays pancreatic cancer cell lines were transiently transfected with luciferase RNA. This luciferase RNA (pST1-luc2mut-2 hBgUTR-A121-EciI vector (pST1-109)) was produced with an ARCA cap and dissolved in H2O. RNA was stored in 22 μl aliquots at −80° C. For all pancreas cell lines the optimal electroporation conditions were determined resulting in highest transfection rates and viability of the cells. In each assay cells were detached with PBS/5 mM EDTA and 2.5×10^6 cells dissolved in 250 μl X-Vivo were mixed in ice-cold cuvettes with 10 μg RNA. Cells were immediately electroporated (GenePulser Xcell, Biorad) and resuspended in pre-warmed Assay-medium adjusting the cells to 5×10^5 cells/ml. Tested electroporation conditions were for all cell lines: • EP1: 250 V, 475 μF • EP2: 200 V, 300 μF • EP3: 150 V, 300 μF • EP4: 200 V, 400 μF • EP5: 250 V, 950 μF • Control: 0 V, 0 μF
# as §1
# as §2, with “counted. PBMCs were centrifuged (5 min, 468 g) and resuspended in X-Vivo-15 culture medium at a concentration of 1.6×10^7 cells/ml for addition to the pancreas cells and 1.28×10^7 cells/ml for addition to the NUGC-4 sub 10cH11 subE10 Luci #2 cells.” for “counted.”
# as §3
# The next day, 10 μl 8% Triton X100/PBS solution was added to the lysis control wells and 10 μl PBS in all other wells. Finally, 50 μl freshly prepared luciferin stock solution was added (160 mM HEPES, 1×PBS, 3.84 mg/ml D-Luciferin (BD Biosciences)) to each well and plates were incubated for 80 min at RT in the dark. Luminescence resulting from the oxidation of […] by the luciferase of viable cells was measured using a microplate-reader (Infinite200, Tecan, Switzerland). Percentage of cellular cytotoxicity was calculated using the following formula: Specific killing (%)=100−[(RLUsample−RLUtriton)/(RLUmedium ctrl−RLUtriton)×100] […]
# [5] = tested on: Panc04.03; assay: IMAB362-mediated ADCC assay; format: cell-based, human; conditions: at least 2 donors
Molecule,"therapeutic effect of chemotherapy without IMAB362 ([1]; MiaPaCa-2-LVT xenograft, up to 100 mg/kg gemcitabine)","therapeutic effect of chemotherapy without IMAB362 ([2]; BxPC3-LVT xenograft, up to 100 mg/kg gemcitabine)","effect of pretreatment on IMAB362 mediated ADCC ([3]; DANG pretreated 2 days, Gem 1 ng/ml or Gem 1 ng/ml+Ox 10 ng/ml)","median survival versus saline control ([1]; MiaPaCa-2-LVT s.c. xenograft, 200 μg IMAB362 semi-weekly)","tumor growth versus saline control ([1]; MiaPaCa-2-LVT s.c. xenograft, IMAB362 single agent)",ADCC killing by IMAB362 and PBMCs ([4]; Panc05.04),"EC50 of effector cell-dependent killing (ADCC) ([4]; Panc05.04 (pooled with DANG), PBMCs of different donors, E:T 40:1)","maximum killing rate (ADCC) ([4]; Panc05.04, at highest antibody concentrations)","ADCC EC50 ([4]; Panc05.04, at least 2 donors)","ADCC Max. lysis ([4]; Panc05.04, at least 2 donors)","median survival versus saline control ([2]; BxPC3-LVT s.c. xenograft, 200 μg IMAB362 semi-weekly)","tumor growth versus saline control ([2]; BxPC3-LVT s.c. xenograft, IMAB362 single agent)",ADCC killing by IMAB362 and PBMCs ([3]; DANG),"EC50 of effector cell-dependent killing (ADCC) ([3]; DANG (pooled with Panc05.04), PBMCs of different donors, E:T 40:1)","maximum killing rate (ADCC) ([3]; DANG, at highest antibody concentrations)","ADCC EC50 ([3]; DANG, at least 2 donors)","ADCC Max. lysis ([3]; DANG, at least 2 donors)",ADCC EC50 [5]
"Nc1ccn([C@@H]2O[C@H](CO)[C@@H](O)C2(F)F)c(=O)n1 [gemcitabine, 4-amino-1-(2-deoxy-2,2-difluoro-β-D-erythro-pentofuranosyl)pyrimidin-2(1H)-one]",no significant therapeutic effect,no significant therapeutic effect,higher susceptibility for IMAB362 mediated ADCC,–,–,–,–,–,–,–,–,–,–,–,–,–,–,–
"IMAB362: chimeric IgG1 antibody directed against CLDN18.2, developed by Ganymed Pharmaceuticals AG",–,–,–,prolonged median survival,significantly inhibited tumor growth; also recorded: significant tumor growth retardation,efficiently killed,0.1 to 38 µg/mL,~50%,5.7288 ± 4.4351 µg/mL,67.1 ± 6.8%,prolonged median survival,significantly inhibited tumor growth; also recorded: significant tumor growth retardation,efficiently killed,0.1 to 38 µg/mL,~50%,4.9765 ± 4.1254 µg/mL,52.5 ± 7.8%,n.m.
